Assay results published in paper PMC8655237 (Journal of Advanced Research, 2021).
Like-named read-outs stand apart in the source and are kept apart here.

Experiments:
PC-3 = assay: Cell cycle analysis by flow cytometry; type: cell-based, human; conditions: PC-3, 24 h
AKT = AKT quantification by ELISA in A431 cells; type: cell-based, human; conditions: A431, 100 µM, 24 h
hyaluronidase = assay: Hyaluronidase activity in EAC cells of treated mice; type: in vivo; conditions: 75 mg/kg bw, i.p.
HEK-293 = assay: Cytotoxicity to normal cell line; type: cell-based, human; conditions: higher tested concentration (100 µM)
K562 = assay: Cell cycle analysis by flow cytometry; type: cell-based, human; conditions: K562, 24 h
[1] = test system: panel of organ-specific human cancer and normal cell lines; assay: Antiproliferative activity over the cell line panel; type: cell-based; conditions: read-out: IC50 range in all the tested assay systems
MDA-MB-231 [2] = assay: Cell cycle analysis by flow cytometry; type: cell-based, human; conditions: MDA-MB-231, 24 h
A431 cells = assay: Mitochondrial membrane potential; type: cell-based, human; conditions: for total of FITC mean (Rh123): A431, flow cytometry
[3] = test system: Ornithine decarboxylase (ODC); assay: ODC assay, cell-free; type: biochemical; conditions: read-out: IC50 ODC; cell free (In vitro)
hyaluronidase (HYAL) = assay: Hyaluronidase assay, cell-based; set-up: species or system human
LOX-5 = LOX-5 (Homo sapiens, UniProt P09917); assay: LOX-5 assay, cell-based; conditions: IC50 LOX-5, cell based, K562
CAT D mRNA = assay: Real-time qPCR expression analysis; type: cell-based, human; conditions: GAPDH internal control
[4] = test system: Ehrlich Ascites Carcinoma (EAC); assay: Ehrlich ascites carcinoma; type: in vivo, Swiss albino mice; conditions: for reduction of EAC tumor cells (tumor growth inhibition): day 1-9
MDA-MB-231 [5] = assay: NRU antiproliferative assay; type: cell-based; conditions: Homo sapiens, MDA-MB-231, 24 h, read-out: IC50 (NRU)
FaDu = assay: MTT antiproliferative assay; type: cell-based; conditions: Homo sapiens, 24 h, read-out: IC50 (MTT)
A549 [6] = assay: Cell cycle analysis by flow cytometry; type: cell-based, human; conditions: A549, 24 h
A549 [7] = assay: NRU antiproliferative assay; type: cell-based; conditions: Homo sapiens, A549, 24 h, read-out: IC50 (NRU)
Acute oral toxicity = type: in vivo, Swiss albino mice; conditions: up to 1000 mg/kg body weight
A431 = assay: SRB antiproliferative assay; type: cell-based; conditions: Homo sapiens, A-431, 24 h, read-out: IC50 (SRB)

Chain of LOX-5 (P09917 whole entry): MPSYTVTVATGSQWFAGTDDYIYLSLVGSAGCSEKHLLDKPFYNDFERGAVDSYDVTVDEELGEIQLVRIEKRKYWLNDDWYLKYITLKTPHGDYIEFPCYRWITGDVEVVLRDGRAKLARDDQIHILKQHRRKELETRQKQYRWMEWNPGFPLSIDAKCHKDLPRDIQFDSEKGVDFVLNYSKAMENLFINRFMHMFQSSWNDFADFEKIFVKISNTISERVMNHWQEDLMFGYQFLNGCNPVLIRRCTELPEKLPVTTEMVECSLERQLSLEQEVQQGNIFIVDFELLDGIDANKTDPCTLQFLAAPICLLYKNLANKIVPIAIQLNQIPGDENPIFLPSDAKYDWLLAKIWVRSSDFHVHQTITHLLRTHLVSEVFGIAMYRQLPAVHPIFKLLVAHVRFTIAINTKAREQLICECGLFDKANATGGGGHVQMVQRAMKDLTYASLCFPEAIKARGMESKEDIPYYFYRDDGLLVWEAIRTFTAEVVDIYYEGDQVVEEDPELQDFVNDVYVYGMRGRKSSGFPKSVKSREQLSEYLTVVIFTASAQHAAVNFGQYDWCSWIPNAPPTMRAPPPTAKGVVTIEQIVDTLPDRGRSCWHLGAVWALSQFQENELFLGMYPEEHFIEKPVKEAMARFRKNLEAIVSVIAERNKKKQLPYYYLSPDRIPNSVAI

CC(C)[C@@H]1CC[C@@H](C)C[C@@H]1O [neomenthol, (+)-Neomenthol]
cell cycle phase arrested (PC-3): arrest of the G0/G1 phase | AKT level (ng/mg of protein) (AKT): 0.125 ± 0.004 ng/mg | inhibition (modulation) of hyaluronidase activity in EAC cells of mice (hyaluronidase): up to 10% | cytotoxicity to HEK-293 (HEK-293): non-cytotoxic | cell cycle phase arrested (K562): arrest of the G0/G1 phase | IC50 [1]: 16.4 to 99.3 µM | cell cycle phase arrested (MDA-MB-231 [2]): arrests the S-phase | total of FITC mean (Rh123) (A431 cells; 10 µM): 3101 ± 1.41 | total of FITC mean (Rh123) (A431 cells; 100 µM): 2913 ± 1.41 | percent decrease of mitochondrial membrane potential concerning control (A431 cells; A431, highest concentration, 24 h, spectrofluorometer): 13.05 ± 2.6% | IC50 [3]: 20.2 ± 1.09 µM | IC50 (hyaluronidase (HYAL); read-out: IC50 HYAL, A431): 12.81 ± 0.01 µM | IC50 (hyaluronidase (HYAL); read-out: IC50 HYAL, A549): 36.8 ± 5.65 µM | IC50 (LOX-5): 72.2 ± 2.19 µM | CAT D mRNA expression level (CAT D mRNA; A431, with respect to control): 1.19 fold change | CAT D mRNA expression level (CAT D mRNA; A549, with respect to control): 1.37 fold change | CAT D mRNA expression level (CAT D mRNA; FaDu, with respect to control): 1.31 fold change | CAT D mRNA expression level (CAT D mRNA; K562, with respect to control): 1.24 fold change | CAT D mRNA expression level (CAT D mRNA; MDA-MB-231, with respect to control): 1.15 fold change | CAT D mRNA expression level (CAT D mRNA; PC-3, with respect to control): 1.35 fold change | reduction of EAC tumor cells (tumor growth inhibition) ([4]; 50 mg/kg bw i.p.): 23.98% | survival rate higher compared to EAC harbored mice ([4]; 75 mg/kg body weight): 17% | survival of EAC harbored mice (survived till) ([4]; 75 mg/kg body weight, untreated EAC mice died within 24 days): 27 days | reduction of EAC tumor cells (tumor growth inhibition) ([4]; 75 mg/kg bw i.p.): 58.84% | IC50 (MDA-MB-231 [5]): 34.7 ± 9.96 µM | IC50 (FaDu): 99.31 ± 0.59 µM | cell cycle phase arrested (A549 [6]): G2/M phase | IC50 (A549 [7]): 48.1 ± 4.97 µM | acute oral toxicity outcome (Acute oral toxicity): safe and non-toxic | IC50 (A431): 82.1 ± 1.97 µM
